From ChEMBL document CHEMBL3217456 (Medchemcomm, 2014) come the findings set out here.

In assay [1] the target is Histamine H1 receptor (Homo sapiens) (UniProt P35367). Briefly: Intrinsic activity at human recombinant histamine H1 receptor expressed in Sf9 cells coexpressing RGS4 preincubated for 2 mins before [gamma32P]GTP addition measured after 20 mins by steady-state GTPase activity assay relative to histamine.
For assay [2], the target named is T1, Histamine H2 receptor (Homo sapiens, UniProt P25021). Briefly: Intrinsic activity at human recombinant histamine H2 receptor-Gsalphas fusion protein expressed in Sf9 cells assessed as [35S]GTPgammaS binding at 10 uM after 90 mins by liquid scintillation counting relative to histamine. The format is functional. On the technique in general: GTPγS is a poorly hydrolysed GTP analogue; its binding reports G protein activation.
T1 sequence (P25021 whole entry, the tested form may be a part): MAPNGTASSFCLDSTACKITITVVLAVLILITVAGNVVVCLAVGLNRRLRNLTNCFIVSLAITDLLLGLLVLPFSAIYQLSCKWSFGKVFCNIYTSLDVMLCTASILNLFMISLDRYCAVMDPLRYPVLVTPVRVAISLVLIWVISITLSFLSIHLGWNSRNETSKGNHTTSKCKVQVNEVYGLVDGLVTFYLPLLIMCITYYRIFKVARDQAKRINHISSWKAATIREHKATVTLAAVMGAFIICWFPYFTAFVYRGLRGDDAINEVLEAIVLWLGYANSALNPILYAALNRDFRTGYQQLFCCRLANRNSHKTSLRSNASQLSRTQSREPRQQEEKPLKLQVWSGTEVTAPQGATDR

For assay [3], the target named is T1, Histamine H2 receptor. Briefly: Antagonist activity at human recombinant histamine H2 receptor-Gsalphas fusion protein expressed in Sf9 cells assessed as inhibition of histamine-induced [35S]GTPgammaS binding after 90 mins by liquid scintillation counting. The format is functional.
For assay [4], the target named is Histamine H1 receptor (Homo sapiens) (UniProt P35367). Kind of assay: Antagonist activity at human recombinant histamine H1 receptor expressed in Sf9 cells coexpressing RGS4 assessed as inhibition of histamine-induced […] hydrolysis preincubated for 2 mins before [gamma32P]GTP addition measured after 20 mins by steady-state GTPase activity assay. It counts as functional.

Assay [5] concerns the target T2, Histamine H3 receptor (Homo sapiens, UniProt Q9Y5N1). Kind of assay: Agonist activity at human recombinant histamine H3 receptor expressed in Sf9 cells coexpressing Galphai2,Gbeta1gamma2 and RGS4 assessed as [35S]GTPgammaS binding after 90 mins by liquid scintillation counting. It counts as functional.
Assay [6] addresses T3, Histamine H4 receptor (Homo sapiens, UniProt Q9H3N8). Briefly: Agonist activity at human recombinant histamine H4 receptor-RGS19 fusion protein expressed in Sf9 cells coexpressing Galphai2,Gbeta1gamma2 assessed as [35S]GTPgammaS binding after 90 mins by liquid scintillation counting. It counts as functional.
In assay [7] the target is T2, Histamine H3 receptor. Kind of assay: Intrinsic activity at human recombinant histamine H3 receptor expressed in Sf9 cells coexpressing Galphai2,Gbeta1gamma2 and RGS4 assessed as [35S]GTPgammaS binding at 10 uM after 90 mins by liquid scintillation counting relative to histamine. It counts as functional.
Assay [8] addresses T2, Histamine H3 receptor. Briefly: Antagonist activity at human recombinant histamine H3 receptor expressed in Sf9 cells coexpressing Galphai2,Gbeta1gamma2 and RGS4 assessed as inhibition of histamine-induced [35S]GTPgammaS binding after 90 mins by liquid scintillation counting. The format is functional.
For assay [9], the target named is T3, Histamine H4 receptor. Kind of assay: Antagonist activity at human recombinant histamine H4 receptor-RGS19 fusion protein expressed in Sf9 cells coexpressing Galphai2,Gbeta1gamma2 assessed as inhibition of histamine-induced [35S]GTPgammaS binding after 90 mins by liquid scintillation counting. It counts as functional.
In assay [10] the target is T3, Histamine H4 receptor. Briefly: Intrinsic activity at human recombinant histamine H4 receptor-RGS19 fusion protein expressed in Sf9 cells coexpressing Galphai2,Gbeta1gamma2 assessed as [35S]GTPgammaS binding at 10 uM after 90 mins by liquid scintillation counting relative to histamine. It counts as functional.
The target of assay [11] is T2, Histamine H3 receptor. Kind of assay: Antagonist activity at human recombinant histamine H3 receptor expressed in Sf9 cells coexpressing Galphai2,Gbeta1gamma2 and RGS4 assessed as inhibition of histamine-induced […] hydrolysis preincubated for 2 mins before [gamma32P]GTP addition measured after 20 mins by steady-state GTPase activity assay. It counts as functional.

The target of assay [12] is T3, Histamine H4 receptor. Kind of assay: Antagonist activity at human recombinant histamine H4 receptor-RGS19 fusion protein expressed in Sf9 cells coexpressing Galphai2,Gbeta1gamma2 assessed as inhibition of histamine-induced […] hydrolysis preincubated for 2 mins before [gamma32P]GTP addition measured after 20 mins by steady-state GTPase activity assay. It counts as functional.

Assay [13] addresses T1, Histamine H2 receptor. Kind of assay: Antagonist activity at human recombinant histamine H2 receptor-Gsalphas fusion protein expressed in Sf9 cells assessed as inhibition of histamine-induced […] hydrolysis preincubated for 2 mins before [gamma32P]GTP addition measured after 20 mins by steady-state GTPase activity assay. It counts as functional.
Assay [14] concerns the target T1, Histamine H2 receptor. Kind of assay: Intrinsic activity at human recombinant histamine H2 receptor-Gsalphas fusion protein expressed in Sf9 cells preincubated for 2 mins before [gamma32P]GTP addition measured after 20 mins by steady-state GTPase activity assay relative to histamine.
Assay [15] concerns the target T2, Histamine H3 receptor. Briefly: Intrinsic activity at human recombinant histamine H3 receptor expressed in Sf9 cells coexpressing Galphai2,Gbeta1gamma2 and RGS4 preincubated for 2 mins before [gamma32P]GTP addition measured after 20 mins by steady-state GTPase activity assay relative to histamine.
Assay [16] has as its target Histamine H1 receptor (Homo sapiens) (UniProt P35367). As to conditions: Sf9.

Structures are written as SMILES. Active and inactive are the calls of the source. The rule behind the calls is not given here.

T3 sequence (Q9H3N8 whole entry, the tested form may be a part): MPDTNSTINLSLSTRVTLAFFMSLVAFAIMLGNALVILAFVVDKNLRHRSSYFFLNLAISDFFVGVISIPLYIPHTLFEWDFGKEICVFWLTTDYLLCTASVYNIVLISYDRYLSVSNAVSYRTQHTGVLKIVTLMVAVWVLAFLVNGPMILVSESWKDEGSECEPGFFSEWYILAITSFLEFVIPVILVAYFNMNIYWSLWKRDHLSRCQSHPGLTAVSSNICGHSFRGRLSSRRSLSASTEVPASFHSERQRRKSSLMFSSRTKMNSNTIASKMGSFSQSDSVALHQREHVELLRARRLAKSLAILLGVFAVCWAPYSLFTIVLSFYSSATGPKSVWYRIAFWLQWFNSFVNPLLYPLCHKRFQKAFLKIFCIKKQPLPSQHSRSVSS
T2 sequence (Q9Y5N1 whole entry, the tested form may be a part): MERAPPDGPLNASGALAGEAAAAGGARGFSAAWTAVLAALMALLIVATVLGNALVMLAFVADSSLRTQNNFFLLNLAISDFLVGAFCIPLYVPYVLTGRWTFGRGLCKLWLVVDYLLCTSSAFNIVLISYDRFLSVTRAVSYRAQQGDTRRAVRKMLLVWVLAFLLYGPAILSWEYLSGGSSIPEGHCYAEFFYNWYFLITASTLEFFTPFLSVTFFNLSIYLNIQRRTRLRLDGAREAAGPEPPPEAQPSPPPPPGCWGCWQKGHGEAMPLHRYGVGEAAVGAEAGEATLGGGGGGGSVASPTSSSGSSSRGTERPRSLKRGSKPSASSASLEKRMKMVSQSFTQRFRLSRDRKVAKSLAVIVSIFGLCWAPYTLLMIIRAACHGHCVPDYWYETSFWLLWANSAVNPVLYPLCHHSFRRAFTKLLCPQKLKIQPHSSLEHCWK
Sequence of Histamine H1 receptor (Homo sapiens) (P35367 whole entry, the tested form may be a part): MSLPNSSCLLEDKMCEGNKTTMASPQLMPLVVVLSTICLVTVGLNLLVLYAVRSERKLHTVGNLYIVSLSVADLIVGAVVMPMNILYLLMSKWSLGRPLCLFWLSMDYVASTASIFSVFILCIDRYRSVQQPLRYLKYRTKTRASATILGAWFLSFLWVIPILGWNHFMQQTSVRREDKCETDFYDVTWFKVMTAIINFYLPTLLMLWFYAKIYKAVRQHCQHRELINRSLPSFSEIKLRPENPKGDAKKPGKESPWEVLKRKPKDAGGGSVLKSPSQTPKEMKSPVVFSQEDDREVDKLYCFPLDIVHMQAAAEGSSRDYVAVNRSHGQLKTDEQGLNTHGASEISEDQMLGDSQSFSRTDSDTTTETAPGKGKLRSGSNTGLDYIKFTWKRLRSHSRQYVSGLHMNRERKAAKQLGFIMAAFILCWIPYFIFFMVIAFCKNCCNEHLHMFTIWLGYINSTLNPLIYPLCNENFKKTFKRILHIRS

Take `N#C/N=C(\NCCCCc1nc(N)n[nH]1)NCCSc1ccccc1`: the Intrinsic activity in assay [1] was found to be 0.01; in assay [2], 0.03. Also, the pKb in assay [3] and in assay [4] was less than 5 in each case. Moreover, the pEC50 result in assay [5] and in assay [6] was “inactive” each time.
As for `N#C/N=C(/NCCCCNc1ccccn1)NCCSc1ccccc1`, the Intrinsic activity in assay [7] is -0.36; in assay [1], -0.01; in assay [2], -0.13; in assay [10] it was -0.34. In addition, the negative-log Kb (pKb) in [3], in assay [8], in [9] and in assay [4] was less than 5 in each case.
On to `N#C/N=C(/NCCCNc1nccc(N)n1)NCCSc1ccccc1`, for which the Intrinsic activity in assay [7] is -0.71; in assay [1], 0.01; in assay [2], -0.11; in assay [10] it was -0.09. In addition, the pKb in assay [3] was less than 5; in [8], 5.14; in assay [9], less than 5; in [4], less than 5.
With `N/C(=N\C(=O)CC(c1ccccc1)c1ccccc1)NCCCc1cccnc1`, the Intrinsic activity in assay [1] is 0.06; in assay [14] it was -0.16; in assay [15] it was -0.14. Also, the pKb was less than 5 in assay [11], less than 5 in assay [12], 6.14 in assay [13] and 5.04 in assay [4].
For `N#C/N=C(/NCCCCc1c[nH]cn1)NCCSc1ccccc1`, the Intrinsic activity is -0.52 in [7], 7% in [1] and 0.88 in assay [10]. The pKb in assay [8] is 6.14. The EC50 in [6] was 0.0372 µM.
With `N/C(=N\C(=O)CC(c1ccccc1)c1ccccc1)NCCCc1ccccn1`, the Intrinsic activity is 0.1 in assay [1], 0 in assay [14] and -0.44 in assay [15]. Also, the pKb in [11] was 5.35; in assay [12], less than 5; in [13], 5.68; in assay [4], 5.41.
On to `N/C(=N\C(=O)CC(c1ccccc1)c1nccs1)NCCCc1ncc[nH]1` (stereo not given), for which the pKb was 5.28 in [11], less than 5 in [12] and 5.19 in assay [13]. The Intrinsic activity in [14] was 0; in [15], -0.46.
On to `N#C/N=C(/NCCCSc1nc(N)n[nH]1)NCCSc1ccccc1`, for which the Intrinsic activity in assay [2] is -0.05. Moreover, the pKb in assay [3] is less than 5. Further, the pEC50 entry in assay [16], in [5] and in assay [6] was “inactive” throughout.
`CN/C(=N\C#N)NCCCSc1nc(N)n[nH]1`: the Intrinsic activity in assay [2] was -0.02. Further, the pKb in assay [3] was less than 5. For the same compound, the pEC50 result in assay [16], in [5] and in [6] was “inactive” in each case.
Turning to `CN/C(=N/C#N)NCCCCc1nc[nH]c1C`, the Intrinsic activity in assay [7] was 0.23; in [1], -0.03; in assay [2], 0.04; in assay [10] it was 0.6. The pKb in assay [3] and in assay [4] was less than 5 in each case. Moreover, the EC50 was 1.07 µM in [5] and 3.63 µM in assay [6].
Consider `CN/C(=N\CCSCc1nc[nH]c1C)NC#N`, for which the values for the pKb in assay [3] and in assay [9] were 5.77 and less than 5, respectively.
With `CN/C(=N/C#N)NCCCCCn1ccnc1C`, the Intrinsic activity in [7] was -0.26; in [1], -0.01; in [2] it was -0.07; in [10], 0.06. Further, the pKb in assay [3], in assay [8] and in assay [4] was less than 5 each time. Moreover, in assay [6], the pEC50 result is “inactive”.
As for `CC(CC(=O)/N=C(\N)NCCCc1ccccc1)c1ccccc1` (stereo not given), the results for the Intrinsic activity in assay [1], in assay [14] and in [15] were -0.02, -0.1 and -0.19, respectively. Further, the pKb in assay [11] was less than 5; in assay [12], less than 5; in [13], 5.89; in assay [4], 5.05.
With `N/C(=N\C(=O)CC(c1ccccc1)c1ccccc1)NCCCc1ccccc1`, the Intrinsic activity in assay [1] was -0.01; in assay [14] it was -0.12; in assay [15], -0.24. The pKb in assay [11] is 5.1; in assay [12], less than 5; in assay [13], 5.89; in [4] it was 5.26.
Consider `Cc1nc(CCCN/C(=N\C#N)NCCSc2ccccc2)c[nH]1`, for which the Intrinsic activity in [7] is -1.11; in [1], 0.03; in [2] it was -0.05; in assay [10], 0.4. Further, the pKb in assay [3] is less than 5; in [8], less than 5; in assay [4], less than 5.3. Further, the EC50 in assay [6] is 0.468 µM.
With `CN/C(=N/C#N)NCCCCc1nc(N)n[nH]1`, the Intrinsic activity in assay [2] was found to be 0.31. In assay [3], the pKb is less than 5. Also, the pEC50 result in assay [16], in assay [5] and in assay [6] was “inactive” each time.
On to `CN/C(=N/C#N)NCCCc1c[nH]c(C)n1`, for which the Intrinsic activity in assay [7] was -0.52; in assay [2], -0.02; in assay [10], 0.74. Besides, the Intrinsic activity entry in assay [1] was “inactive”. Also, the pKb in assay [3] and in assay [8] was less than 5 in each case. Also, the pKb entry in [4] is “inactive”. The pEC50 entry in assay [16] was “inactive”. The EC50 in [6] was 0.55 µM.
For the compound `N#C/N=C(/NCCCCNc1nc(N)n[nH]1)NCCSc1ccccc1`, the Intrinsic activity in assay [2] was -0.09. Further, in assay [3], the pKb was less than 5. For the same compound, the pEC50 result in assay [16], in assay [5] and in [6] was “inactive” in each case.
For `N#C/N=C(\NCCCNc1nc(N)n[nH]1)NCCSc1ccccc1`, the Intrinsic activity in assay [2] is -0.01. In assay [3], the pKb was less than 5. Besides, the pEC50 entry in assay [16], in assay [5] and in [6] was “inactive” in each case.
In the case of `CN/C(=N/C#N)NCCCNc1nc(N)n[nH]1`, the Intrinsic activity in assay [2] is -0.03. Also, the pKb in assay [3] was less than 5. In addition, the pEC50 result in assay [16], in assay [5] and in [6] was “inactive” each time.
Turning to `N#C/N=C(/NCCNc1nccc(N)n1)NCCSc1ccccc1`, the Intrinsic activity in [7] is -1.43; in assay [1], 0.01; in [2] it was -0.08. Also, the pKb in assay [3], in [8] and in assay [4] was less than 5 each time. The pEC50 result in assay [6] was “inactive”.
As for `CN(C)Cc1ccc(CCCN/C(N)=N/C(=O)CC(c2ccccc2)c2nccs2)o1` (stereo not given), the pKb in assay [11] was 5.51; in [12], less than 5; in assay [13] it was 6.13. The Intrinsic activity in assay [14] is -0.13; in [15], -0.62.
For the compound `N/C(=N\C(=O)CC(c1ccccc1)c1ccccc1)NCCCc1ccncc1`, the Intrinsic activity in assay [1] was 0.08; in assay [14], -0.12; in [15] it was -0.08. Also, the pKb was 5.06 in assay [11], less than 5 in [12], 6.14 in assay [13] and less than 5 in assay [4].
In the case of `N#C/N=C(\NCCCCc1cnn[nH]1)NCCSc1ccccc1`, the results for the Intrinsic activity in assay [1] and in [2] were -0.02 and -0.04, respectively. The pKb in [3] and in assay [4] was less than 5 throughout. For the same compound, the pEC50 entry in assay [5] and in assay [6] was “inactive” each time.

For orientation: pKb means the Kb on a negative log10 scale, so that one unit is a factor of ten. A word on the EC50: it is the concentration at which the effect is half-maximal.
